Data taken from patent US6552196B2, “Quinolone carboxylic acid derivatives” (Dong Wha Pharmaceutical Industrial Co., Ltd., priority 1997, dated 2003).

Tests used:
Assay type in all cases: cell-based
[1] = system: Pseudomonas aeruginosa 1771M; experiment: In vitro antibacterial activity (MIC), agar dilution; conditions: Pseudomonas aeruginosa, 1771M, 18 h, read-out: minimum inhibitory concentration (MIC)
Experimental: (§1) 10^7 cfu/ml of bacteria were inoculated and cultured for 18 hours at 37° C. and then the antibacterial activities were measured. For the methicillin resistant strains the activities were measured after 48 hours of cultivation at 30° C. Hoechst Standard strains were used for the testings.

[2] = system: Pseudomonas aeruginosa 1771; experiment: as above; conditions: 2-fold agar dilution, Muller-Hinton agar, 18 hours at 37° C., read-out: minimum inhibitory concentration (MIC)
Experimental: as §1

[3] = system: Esherichia coli TEM; experiment: as above; conditions: 2-fold agar dilution, Muller-Hinton agar, 18 hours at 37° C., read-out: minimum inhibitory concentration (MIC)
Experimental: as §1

[4] = system: Streptococcus faecium MD 8b; experiment: as above; conditions: Enterococcus faecium, MD8B, 2-fold agar dilution, Muller-Hinton agar, 18 hours at 37° C., read-out: minimum inhibitory concentration (MIC)
Experimental: as §1

[5] = system: Staphylococcus aureus 285; experiment: as above; conditions: 2-fold agar dilution, Muller-Hinton agar, 18 hours at 37° C., read-out: minimum inhibitory concentration (MIC)
Experimental: as §1

[6] = system: Enterobacter clocae P99; experiment: as above; conditions: 2-fold agar dilution, Muller-Hinton agar, 18 hours at 37° C., read-out: minimum inhibitory concentration (MIC)
Experimental: as §1

[7] = system: Streptococcus pyogens 308A; experiment: as above; conditions: 2-fold agar dilution, Muller-Hinton agar, 18 hours at 37° C., read-out: minimum inhibitory concentration (MIC)
Experimental: as §1

[8] = system: Klebsiella oxytoca 1082E; experiment: as above; conditions: 2-fold agar dilution, Muller-Hinton agar, 18 hours at 37° C., read-out: minimum inhibitory concentration (MIC)
Experimental: as §1

[9] = system: Esherichia coli 078; experiment: as above; conditions: 2-fold agar dilution, Muller-Hinton agar, 18 hours at 37° C., read-out: minimum inhibitory concentration (MIC)
Experimental: as §1

[10] = system: Enterobacter clocae 1321E; experiment: as above; conditions: 2-fold agar dilution, Muller-Hinton agar, 18 hours at 37° C., read-out: minimum inhibitory concentration (MIC)
Experimental: as §1

[11] = system: Pseudomonas aeruginosa 9027; experiment: as above; conditions: 2-fold agar dilution, Muller-Hinton agar, 18 hours at 37° C., read-out: minimum inhibitory concentration (MIC)
Experimental: as §1

[12] = system: Esherichia coli DC0; experiment: as above; conditions: 2-fold agar dilution, Muller-Hinton agar, 18 hours at 37° C., read-out: minimum inhibitory concentration (MIC)
Experimental: as §1

[13] = system: Salmonella typhimurium; experiment: as above; conditions: Salmonella enterica, 2-fold agar dilution, Muller-Hinton agar, 18 hours at 37° C., read-out: minimum inhibitory concentration (MIC)
Experimental: as §1

[14] = system: Pseudomonas aeruginosa 1592E; experiment: as above; conditions: 2-fold agar dilution, Muller-Hinton agar, 18 hours at 37° C., read-out: minimum inhibitory concentration (MIC)
Experimental: as §1

[15] = system: Staphylococcus aureus 503; experiment: as above; conditions: 2-fold agar dilution, Muller-Hinton agar, 18 hours at 37° C., read-out: minimum inhibitory concentration (MIC)
Experimental: as §1

[16] = system: Esherichia coli 1507E; experiment: as above; conditions: 2-fold agar dilution, Muller-Hinton agar, 18 hours at 37° C., read-out: minimum inhibitory concentration (MIC)
Experimental: as §1

[17] = system: Klebsiella aerogenes 1522E; experiment: as above; conditions: 2-fold agar dilution, Muller-Hinton agar, 18 hours at 37° C., read-out: minimum inhibitory concentration (MIC)
Experimental: as §1

[18] = system: Staphylococcus aureus SG511; experiment: as above; conditions: 2-fold agar dilution, Muller-Hinton agar, 18 hours at 37° C., read-out: minimum inhibitory concentration (MIC)
Experimental: as §1

[19] = system: Streptococcus pyogens 77A; experiment: as above; conditions: 2-fold agar dilution, Muller-Hinton agar, 18 hours at 37° C., read-out: minimum inhibitory concentration (MIC)
Experimental: as §1

[20] = system: Staphylococcus aureus 303; experiment: In vitro antibacterial activity against resistant strains (MIC); conditions: resistant strain Staphylococcus aureus 303; 2-fold agar dilution; methicillin resistant strains 48 hours at 30° C.; read-out: minimum inhibitory concentration (MIC)
Experimental: as §1

[21] = system: Staphylococcus aureus 693E; experiment: as above; conditions: resistant strain Staphylococcus aureus 693E; 2-fold agar dilution; methicillin resistant strains 48 hours at 30° C.; read-out: minimum inhibitory concentration (MIC)
Experimental: as §1

[22] = system: Staphylococcus aureus 694E; experiment: as above; conditions: resistant strain Staphylococcus aureus 694E; 2-fold agar dilution; methicillin resistant strains 48 hours at 30° C.; read-out: minimum inhibitory concentration (MIC)
Experimental: as §1

[23] = system: Staphylococcus aureus 703E; experiment: as above; conditions: resistant strain Staphylococcus aureus 703E; 2-fold agar dilution; methicillin resistant strains 48 hours at 30° C.; read-out: minimum inhibitory concentration (MIC)
Experimental: as §1

[24] = system: Staphylococcus aureus 692E; experiment: as above; conditions: resistant strain Staphylococcus aureus 692E; 2-fold agar dilution; methicillin resistant strains 48 hours at 30° C.; read-out: minimum inhibitory concentration (MIC)
Experimental: as §1

[25] = system: Staphylococcus aureus 88E; experiment: as above; conditions: resistant strain Staphylococcus aureus 88E; 2-fold agar dilution; methicillin resistant strains 48 hours at 30° C.; read-out: minimum inhibitory concentration (MIC)
Experimental: as §1

[26] = system: Staphylococcus aureus 256E; experiment: as above; conditions: resistant strain Staphylococcus aureus 256E; 2-fold agar dilution; methicillin resistant strains 48 hours at 30° C.; read-out: minimum inhibitory concentration (MIC)
Experimental: as §1

[27] = system: Staphylococcus aureus 690E; experiment: as above; conditions: resistant strain Staphylococcus aureus 690E; 2-fold agar dilution; methicillin resistant strains 48 hours at 30° C.; read-out: minimum inhibitory concentration (MIC)
Experimental: as §1

[28] = system: Staphylococcus epidermidis 178; experiment: as above; conditions: resistant strain Staphylococcus epidermidis 178; 2-fold agar dilution; methicillin resistant strains 48 hours at 30° C.; read-out: minimum inhibitory concentration (MIC)
Experimental: as §1

[29] = system: Staphylococcus aureus 293; experiment: as above; conditions: resistant strain Staphylococcus aureus 293; 2-fold agar dilution; methicillin resistant strains 48 hours at 30° C.; read-out: minimum inhibitory concentration (MIC)
Experimental: as §1

[30] = system: Staphylococcus aureus 695E; experiment: as above; conditions: resistant strain Staphylococcus aureus 695E; 2-fold agar dilution; methicillin resistant strains 48 hours at 30° C.; read-out: minimum inhibitory concentration (MIC)
Experimental: as §1

[31] = system: Staphylococcus epidermidis 291; experiment: as above; conditions: resistant strain Staphylococcus epidermidis 291; 2-fold agar dilution; methicillin resistant strains 48 hours at 30° C.; read-out: minimum inhibitory concentration (MIC)
Experimental: as §1

[32] = system: Staphylococcus aureus 701E; experiment: as above; conditions: resistant strain Staphylococcus aureus 701E; 2-fold agar dilution; methicillin resistant strains 48 hours at 30° C.; read-out: minimum inhibitory concentration (MIC)
Experimental: as §1

[33] = system: Staphylococcus aureus 179; experiment: as above; conditions: resistant strain Staphylococcus aureus 179; 2-fold agar dilution; methicillin resistant strains 48 hours at 30° C.; read-out: minimum inhibitory concentration (MIC)
Experimental: as §1

[34] = system: Staphylococcus aureus 121E; experiment: as above; conditions: resistant strain Staphylococcus aureus 121E; 2-fold agar dilution; methicillin resistant strains 48 hours at 30° C.; read-out: minimum inhibitory concentration (MIC)
Experimental: as §1

[35] = system: Staphylococcus aureus 208E; experiment: as above; conditions: resistant strain Staphylococcus aureus 208E; 2-fold agar dilution; methicillin resistant strains 48 hours at 30° C.; read-out: minimum inhibitory concentration (MIC)
Experimental: as §1

[36] = system: Staphylococcus aureus 697E; experiment: as above; conditions: resistant strain Staphylococcus aureus 697E; 2-fold agar dilution; methicillin resistant strains 48 hours at 30° C.; read-out: minimum inhibitory concentration (MIC)
Experimental: as §1

[37] = system: Staphylococcus aureus 8236; experiment: as above; conditions: resistant strain Staphylococcus aureus 8236; 2-fold agar dilution; methicillin resistant strains 48 hours at 30° C.; read-out: minimum inhibitory concentration (MIC)
Experimental: as §1

[38] = system: Staphylococcus aureus 241; experiment: as above; conditions: resistant strain Staphylococcus aureus 241; 2-fold agar dilution; methicillin resistant strains 48 hours at 30° C.; read-out: minimum inhibitory concentration (MIC)
Experimental: as §1

Work on `CCON=C1CN(c2c(F)c(N)c3c(=O)c(C(=O)O)cn(C4CC4)c3c2F)CC12CNC2.CS(=O)(=O)O` [Example 9, 1-Cyclopropyl-5-amino-6,8-difluoro-7-[8-(ethoxyimino)-2,6-diazaspiro[3,4]oct-6-yl]-4-oxo-1,4-dihydro-3-quinolinecarboxylic acid methanesulfonate] yielded an MIC [1] of 0.391 µg/mL, an MIC [2] of 0.781 µg/mL and an MIC [3] of 0.013 µg/mL. It also gave an MIC [4] of 0.049 µg/mL, an MIC [5] of 0.007 µg/mL and an MIC [6] of 0.007 µg/mL. The MIC [7] was 0.025 µg/mL, the MIC [8] was less than 0.002 µg/mL and the MIC [9] was 0.004 µg/mL. It also gave an MIC [10] of 0.007 µg/mL, an MIC [11] of 0.781 µg/mL and an MIC [12] of 0.195 µg/mL. For the same compound, the MIC [13] was 0.007 µg/mL, the MIC [14] was 0.781 µg/mL and the MIC [15] was less than 0.002 µg/mL. For the same compound, the MIC [16] was 0.013 µg/mL, the MIC [17] was 0.049 µg/mL and the MIC [18] was less than 0.002 µg/mL. The MIC [19] was 0.004 µg/mL, the MIC [20] was 0.098 µg/mL and the MIC [21] was 0.013 µg/mL. The MIC [22] was 0.013 µg/mL, the MIC [23] was 0.013 µg/mL and the MIC [24] was 0.007 µg/mL. It also gave an MIC [25] of 0.007 µg/mL, an MIC [26] of 0.013 µg/mL and an MIC [27] of 0.007 µg/mL. It also gave an MIC [28] of 0.391 µg/mL, an MIC [29] of 0.098 µg/mL and an MIC [30] of 0.013 µg/mL. The MIC [31] was 0.391 µg/mL, the MIC [32] was 0.013 µg/mL and the MIC [33] was 0.098 µg/mL. It also gave an MIC [34] of 0.013 µg/mL, an MIC [35] of 0.013 µg/mL and an MIC [36] of 0.004 µg/mL. For the same compound, the MIC [37] was 0.098 µg/mL and the MIC [38] was 0.098 µg/mL.
